Results published in patent publication US20160002733A1, “ASSESSING RISK FOR ENCEPHALOPATHY INDUCED BY 5-FLUOROURACIL OR CAPECITABINE” (THE BOARD OF TRUSTEES OF THE LELAND STANFORD JUNIOR …, priority 2013, published 2016).
Values joined by “and” are separate entries in the source; they are usually repeats but may differ in a detail not shown here. Equal values may be shown once. Read-outs that look alike come from different tables or passages of the source. Values belong to the compound of their own block, whether it stands above or below them.

What was measured:
[1] = assay type: in vivo, human; details: for plasma ammonia: male
Description: (§1) Plasma ammonia levels were obtained at Stanford University Medical Center, which followed a strict protocol of immediately placing the blood sample on ice, and then analyzing the sample within 15 minutes. Samples not placed on ice, or analyzed after a longer delay yield artificially elevated plasma ammonia levels due to release of ammonia from erythrocytes and deamination of plasma amino acids (52, 53).
A person with gastric adenocarcinoma underwent subtotal gastrectomy and Roux-en-Y gastrojejunostomy, followed by two cycles of adjuvant carboplatin and capecitabine (1000 mg/m^2 twice a day for 14 days), and then 50 Gy of radiation therapy to the tumor bed with concurrent capecitabine (1000 mg/m^2 twice a day). During each course of capecitabine, they experienced extreme lethargy, without mucositis, diarrhea or hand-foot syndrome.
On the third cycle of carboplatin and capecitabine, self-administered folate 1 mg/d hoping to prevent lethargy. From days 5 to 14 of capecitabine, they became increasingly confused, and then combative and ataxic. Two days after the last capecitabine dose, they were taken to local emergency room for delirium and found to have a normal CT scan of the brain.
After discontinuation of lactulose on discharge from the hospital, plasma ammonia gradually rose and then returned to normal over two months (FIG. 2A). Four months after discharge, mild liver steatosis was noted on CT scan for the first time.
A person with newly diagnosed squamous cell carcinoma of the left tonsil and base of tongue began treatment with docetaxel and cisplatin, followed by a planned 5-day infusion of 5-FU (750 mg/m^2). Past medical history included manic depression treated with valproic acid.
(§2) After 1 day, the infusion 5-FU was held because of diarrhea from C. difficile, which was treated with metronidazole. Two days later, the infusion was resumed. On the third infusion day, the patient developed slurred speech and gait ataxia. On the fifth infusion day, they became delirious and then comatose. MRI and CT scan of the brain, and lumbar puncture were normal. Valproic acid trough levels ([…]) were within therapeutic range, which is sufficient to inhibit N-acetylglutamate synthase (FIG. 1A) and disrupt the urea cycle (11, 12). Despite multiple episodes of diarrhea and a delay of 10 hours following discontinuation of infusion 5-FU, plasma ammonia was elevated at 37 μmol/L. The next day, the patient was alert, and plasma ammonia was 16 μmol/L. The tumor had decreased markedly in size, no longer preventing them from turning their head.
A person with a well-differentiated neuroendocrine tumor of unknown primary began treatment with capecitabine (days 1-14) and temozolomide (days 10-14) after progression of massive liver metastases. […]

[2] = Valproic acid trough levels in Patient 2; assay type: in vivo, human; details: within therapeutic range
Description: as §2

[3] = high dose continuous infusion 5-FU; sixteen of 280 patients; cited from earlier work
[4] = Prospective measurement of plasma ammonia levels in patients treated with capecitabine; assay type: in vivo, human
Description: Prospective Measurement of Plasma Ammonia Levels in Patients Treated with Capecitabine
Patients donated whole blood for analysis after providing consent according to a protocol approved by the Stanford University Administrative Panel for the Protection of Human Subjects.
as §1, with “53). […]” for “53).”
Mid-cycle levels were measured after patients had taken capecitabine for 7 to 14 days. […]
To prospectively measure plasma ammonia after capecitabine, we prospectively studied 29 cancer patients (Table 3). […] To estimate baseline plasma ammonia levels, we measured 2 or more levels before the first capecitabine dose or at least 7 days after the previous capecitabine dose.
We monitored changes in cognitive function between baseline and mid-cycle time points with two instruments: a telephone-administered mini-mental status examination, and a patient self-administered questionnaire. […]

Compound: OC[C@H]1O[C@@H](O[C@@H]2[C@@H](CO)OC(O)(CO)[C@H]2O)[C@H](O)[C@@H](O)[C@H]1O (mixture of isomers) [lactulose]
plasma ammonia with lactulose treatment ([1]; Patient 1 (index case), declined from 158 μmol/L, symptoms resolved): 29 µmol/L

Valproic acid trough levels [2]: 45 µg/mL and 68 µg/mL
Compound: CCCC(CCC)C(=O)O [Valproic acid, valproic acid]

plasma ammonia ([1]; human, in vivo): 16 µmol/L
Compound: O=c1[nH]cc(F)c(=O)[nH]1 [5-FU, 5-fluorouracil]
patients who suffered encephalopathy with hyperammonemia [3]: 5.7%

patients with mid-cycle plasma ammonia levels increased above baseline levels ([4]; 29 cancer patients, mid-cycle after 7 to 14 days of capecitabine, by more than 3 or 4 standard deviations (p<0.01 or p<0.001)): 5 of the 29
patients with clinically significant symptoms among those with increased mid-cycle ammonia levels ([4]; of the 5 patients with increased mid-cycle ammonia, cognitive dysfunction, malaise, fatigue, unsteady gait): 2 of the 5
plasma ammonia level ([1]; female, human, in vivo, 7 days after the last capecitabine dose): 158 µmol/L
plasma ammonia ([1]; human, in vivo, 7 days after discontinuing capecitabine): 54 µmol/L
Compound: CCCCCOC(=O)Nc1nc(=O)n(C2OC(C)C(O)C2O)cc1F (centres unmarked) [capecitabine, pentyl[1-(3,4-dihydroxy-5-methyltetrahydrofuran-2-yl)-5-fluoro-2-oxo-1H-pyrimidin-4-yl]carbamate]
